Measurements taken from patent US4980377A, “1-(aminophenyl)-2-aminopropanone derivatives” (Laboratoire L. Lafon, priority 1984, dated 1990).

Columns and labels:
[1] = pH of solutions in distilled water; format: physicochemical
Description: The neuropsychopharmacological study was undertaken according to the procedures described above for CRL 41 153, CRL 41 213 being adminstered intraperitoneally, in solution in distilled water, in a volume of 20 ml/kg to male mice and a volume of 5 ml/kg to male rats, and the pH of the injected solution varying with the concentration of CRL 41 213 according to the data given in Table II below.

[2] = test system: mice; assay: Interaction with oxotremorine; format: in vivo, mouse; details: i.p.
Description: CRL 41 153 is administered to groups of 6 mice 0.5 hour before the intraperitoneal injection of 0.5 mg/kg of oxotremorine.

[3] = test system: mice; assay: Overall behavior and reactivities in mice; format: in vivo, mouse; details: dose not stated
Description: (§1) In the neuropsychopharmacological study which follows, a solution of CRL 41 153 in distilled water (pH 1.5) was administered intraperitoneally in a volume of 20 ml/kg to male mice and 5 ml/kg to male rats.
(§2) Groups of three animals are observed before and then 0.25 hour, 0.50 hour, 1 hour, 2 hours, 3 hours and 24 hours after the administration of CRL 41 153.

[4] = test system: mice; assay: Motility reduced by hypoxic aggression; format: in vivo, mouse; details: i.p.
Description: Half an hour after they have received CRL 41 153, the mice (10 per dose, 20 control animals) are subjected to acute hypobaric anoxia [pressure reduction of 600 mm Hg (i.e. about 8×10^4 Pa) in 90 seconds; release of vacuum in 45 seconds] and are then placed in an actimeter, where their motility is recorded for 10 minutes.

[5] = test system: dogs; assay: Cardiovascular study in anesthetized dogs; format: in vivo, dog
Description: Two dogs (average weight: 14.1 kg), anesthetized with nembutal, receive CRL 41 194 by intraduodenal administration at successive doses of 0.1 mg/kg, 0.5 mg/kg, 1 mg/kg, 2.5 mg/kg, 5 mg/kg and 10 mg/kg (in solution in physiological solvent).
The blood pressure, the heart rate, the blood flow through the femoral artery, the blood flow through the vertebral artery and the rectal temperature are measured. The coloration of the skin and the coloration of the bile, collected by catheterization of the bile duct after ligature of the cystic duct, are observed.
4 dogs (average weight: 14 kg), anesthetized with nembutal, receive CRL 41 221 by intraduodenal administration at successive doses of 0.1 mg/kg, 0.5 mg/kg, 1 mg/kg, 2.5 mg/kg, 5 mg/kg and 10 mg/kg. The blood pressure, the heart rate, the blood flow through the femoral artery, the blood flow through the vertebral artery and the rectal temperature are measured. The coloration of the skin is observed.

[6] = test system: mice; assay: Behavioral despair; format: in vivo, mouse; details: forcibly immersed mice, i.p.
From the text: Half an hour after they have received CRL 41 153, groups of 6 mice are placed in a beaker filled with water to a height of 6 cm. The total period of immobility between the 2nd and 6th minutes following immersion is noted.

[7] = test system: rats; assay: Interaction with apomorphine in rats; format: in vivo, rat; details: i.p.
Description: CRL 41 153 is administered to groups of 6 rats 0.5 hour before the subcutaneous injection of 0.5 mg/kg of apomorphine.

[8] = test system: mice; assay: Intergroup aggressiveness; format: in vivo, mouse; details: i.p.
Description: After they have stayed for 3 weeks in the two halves of a cage divided by an opaque partition, groups of 3 mice receive CRL 41 153. Half an hour later, the two groups from the same cage are brought together by removal of the partition, and the number of fights which occur in 10 minutes is noted.

[9] = test system: mice; assay: Interaction with barbital; format: in vivo, mouse; details: i.p., barbital 220 mg/kg
Description: Half an hour after the administration of CRL 41 153, groups of 10 mice receive an intraperitoneal injection of barbital (220 mg/kg).

[10] = test system: mice; assay: Motility reduced by habituation to the enclosure; format: in vivo, mouse; details: i.p.
Description: After they have stayed In the actimeters for 18 hours, (he mice (6 per dose, 12 control animals) receive CRL 41 153. They are immediately returned to their respective enclosures and, half an hour later, their motility is recorded for 30 minutes.

[11] = test system: rats; assay: Interaction with amphetamine; format: in vivo, rat; details: i.p.
Description: Amphetamine (2 mg/kg) is injected intraperitoneally into groups of 6 rats 30 minutes after the administration of CRL 41 153. […] 4 mg/kg and 16 mg/kg, CRL 41 153 potentiates the intensity and duration of the stereotypies induced by amphetamine.

[12] = test system: mice; assay: Asphyxiant anoxia (gallamine triiodoethylate); format: in vivo, mouse; details: i.p., curarizing agent
Description: Groups of 10 mice receive CRL 41 153 half an hour before the intraperitoneal administration of 32 mg/kg of gallamine triiodoethylate (reference curarizing agent).

[13] = test system: mice; assay: Interaction with reserpine; format: in vivo, mouse; details: i.p.
Description: Four hours after the intraperitoneal injection of 2.5 mg/kg of reserpine, groups of 6 mice receive CRL 41 153.

[14] = test system: humans; assay: Clinical study: vasodilator; format: in vivo, human
From the text: In the treatment of diseases associated with the blood circulation through the vessels.

[15] = test system: gravid White New Zealand female rabbits; assay: Teratogenicity in gravid White New Zealand rabbits; format: in vivo, rabbit; details: day 5 to day 18 of gestation; for Affected foetuses, %: normal limit 1.5%
In short: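 Fetuses harvested by cesarean on gestation day 29 were scored for number and for any malformation (limb blockade, anury, tail or skull defects, exencephaly).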

[16] = test system: mice; assay: Interaction with apomorphine in mice; format: in vivo, mouse; details: i.p.
Description: Groups of 6 mice receive CRL 41 153 0.5 hour before the subcutaneous injection of 1 or 16 mg/kg of apomorphine.

[17] = test system: rats; assay: Overall behavior and reactivities in rats; format: in vivo, rat; details: dose not stated
Description: as §1, §2

[18] = test system: mice; assay: Spontaneous motility; format: in vivo, mouse; details: i.p.
Description: 0.5 hour after they have received CRL 41 153, the mice (6 per dose, 12 control animals) are placed in an actimeter, where their motility is recorded for 30 minutes.

[19] = test system: mice; assay: Four plate test, traction and electric shock; format: in vivo, mouse; details: i.p.
Description: The test is performed on groups of 10 mice 30 minutes after the administration of CRL 41 153.

[20] = test system: CNS; assay: Neuropsychopharmacological profile as a whole; format: in vivo, mice and rats
Description: as §1

CCNC(C)C(=O)c1ccc(N)cc1 (stereo not drawn) [CRL 41 225]
pH ([1]; 0.1 g/liter in distilled water): 5.0 | pH ([1]; 0.2 g/liter in distilled water): 4.5 | pH ([1]; 0.4 g/liter in distilled water): 4.0 | pH ([1]; 0.8 g/liter in distilled water): 3.5 | pH ([1]; 2 g/liter in distilled water): 3.0 | pH ([1]; 3 g/liter in distilled water): 2.5 | pH ([1]; 13 g/liter in distilled water): 2.0 | pH ([1]; 50 g/liter in distilled water): 1.5 | pH ([1]; ≤0.05 g/liter in distilled water): 5.5 | Effect on hypothermic action of oxotremorine [2]: antagonism of the hypothermia | Effect on trembling induced by oxotremorine [2]: a decrease in the intensity of the trembling caused by oxotremorine | Overall behavior: observed effects (summary) [3]: excitation with hyperreactivity in mice and rats | Stereotype movements (summary) [3]: the presence of stereotype movements in mice and rats | Motor recovery of mice after hypobaric hypoxia [4]: improvement in the motor recovery | Vasodilator (conclusion) [5]: vasodiating properties | Period of immobility due to despair [6]: a decrease in the period of immobility | Effect on stereotypies induced by apomorphine [7]: potentiation of the stereotypies | Number of fights / intergroup aggressiveness [8]: at strong doses, a decrease in the number of fights | Duration of the sleep induced by barbital [9]: a reduction in the duration of the sleep induced by barbital | Motor activity of mice accustomed to their enclosure [10]: resumption in the motor activity of mice accustomed to their enclosure | Effect on stereotypies induced by amphetamine [11]: potentiation of the stereotypies | Time taken for convulsions to occur [12]: a decrease in the time taken for convulsions and death to occur | Time taken for death to occur [12]: a decrease in the time taken for convulsions and death to occur | Effect on hypothermia induced by reserpine [13]: antagonism of the hypothermia | Effect on ptosis induced by reserpine [13]: a decrease in the ptosis induced by reserpine in mice | Vasodilator in human clinical use [14]: beneficial vasodilating properties from the clinical point of view | Affected foetuses, number ([15]; 5 mg/kg daily): 0 | Total foetuses (live) ([15]; 5 mg/kg daily): 91 | Affected foetuses, % ([15]; 5 mg/kg daily): 0% | Affected foetuses, number ([15]; 10 mg/kg daily): 0 | Total foetuses (live) ([15]; 10 mg/kg daily): 95 | Affected foetuses, % ([15]; 10 mg/kg daily): 0% | Effect on hypothermia induced by apomorphine [16]: antagonism of the hypothermia | Overall behavior: observed effects (summary) [17]: excitation with hyperreactivity in mice and rats | Stereotype movements (summary) [17]: the presence of stereotype movements in mice and rats | Spontaneous motor activity [18]: an increase in the spontaneous motor activity of mice | Effect on convulsant effects of electric shock [19]: at strong doses, a decrease in the convulsant effects of electric shock | Number of punished passes in the four plate test [19]: an increase in the number of punished passes in the 4 plate test on mice | Antidepressant effects (overall) ([20]; conclusion of the tests): antidepressant and stimulant properties | Stimulant effects (overall) ([20]; conclusion of the tests): antidepressant and stimulant properties | α-adrenergic stimulant effects (overall) ([20]; conclusion of the tests): an α-adrenergic stimulation component | Peripheral α-adrenergic signs (mydriasis, salivation, lacrimation, exophthalmos) ([20]; species and dose not stated): at strong doses, by a reduction in the mydriasis and salivation
